In article PMC8451604, “Rational formulation engineering of fraxinellone utilizing 6-O-α-D-maltosyl-β-cyclodextrin for enhanced oral bioavailability and hepatic fibrosis therapy” (Drug Delivery, 2021):

Experiments:
[1] = Blood biochemical assay (hematological parameters); type: in vivo, Kunming male mice; conditions: mice
Experimental: (§1) The Kunming male mice (weight of 28–30 g) were divided into 10 groups (n = 10): normal group, Frax or G2-β-CD-Frax treatment groups with a Frax dose of 5, 10, and 20 mg/kg, respectively, G2-β-CD solution treatment (equivalent to 20 mg/kg of G2-β-CD-Frax) group. Drug treatment continued every day for 7 weeks. One day after the last administration, blood and major tissues (heart, liver, spleen, lung, and kidney) were obtained from the blank group and drug-treated groups (20 mg/kg) for histological examination. The whole blood was directly analyzed using an automatic blood cell analyzer to obtain hematological parameters. The collected tissues were subjected to histological examination.

[2] = Phase solubility study of Frax with CDs; type: physicochemical; conditions: 37 °C, from phase solubility curves
Experimental: Frax was excessively mixed with increasing molar concentrations (0–350.00 mM) of each CD aqueous solution. […] The samples were subjected to HPLC analysis after centrifugation (4024.8 g, 10 min). Phase solubility profiles were plotted by monitoring Frax concentration as a function of the molar concentration of each CD. Based on the phase solubility curves, we calculated the apparent stability constants (Kc, L/mol) according to Equation (1): (1) Kc=Slope/S0(1−Slope) where S0 is the water solubility of Frax at equilibrium.

Caco-2 cells = test: Cytotoxicity in Caco-2 cells (MTT assay); type: cell-based; conditions: 4 h
Experimental: (§2) Cytotoxicity effects and cellular uptake ability of Frax, CDs, and CDs-Frax complexes were examined using Caco-2 cells. […] Each CD solution was also used to determine whether the cell toxicity was caused by Frax or CDs. For cellular uptake studies, Caco-2 cells were treated with Frax and CDs-Frax (100 μg/mL) for 0.5, 1, and 2 h, respectively. For P-gp inhibition evaluation, the cells were pretreated with verapamil at a concentration of 100 μg/mL and further treated with each drug or formulation. Thereafter, the cells were washed and replenished with fresh PBS (300 μL). The cell lysate was prepared by three cycles of freeze-thaw. Protein concentration in the samples was quantified by the BCA kit while the Frax concentration was determined by HPLC.

[3] = Safety evaluation for seven weeks, histological examination (H&E); type: in vivo, Kunming male mice; conditions: mice, oral daily for 7 weeks, 20 mg/kg or equivalent G2-β-CD
Experimental: as §1

[4] = Cytotoxicity in Caco-2 cells (MTT assay); type: cell-based; conditions: human, Caco-2 cells; Caco-2, 300 μg/mL, 4 h; read-out: cell viability (cells remained viable)
Experimental: as §2

[5] = 7 weeks, colchicine group (0.2 mg/kg), in % (unit assumed)
[6] = 7 weeks, colchicine group (0.2 mg/kg), in fL (unit assumed)

For `COc1cc2c(c(OC)c1OC)-c1ccc(OC)c(=O)cc1[C@@H](NC(C)=O)CC2` [Colchicine, colchicine, reference compound], the “MCHC (mean corpuscular hemoglobin concentration)” value ([1]; 7 weeks) was 341.86 ± 9.91, the “PDW (platelet distribution width)” value ([1]; 7 weeks) was 14.99 ± 0.22 and the “PLT (platelet)” value ([1]; 7 weeks, colchicine group (0.2 mg/kg), in 10^9/L (unit assumed)) was 1363.86 ± 333.63. For the same molecule, the “HCT (haematocrit)” value [1, 5] was 39.06 ± 2.62, the “RDW-CV (red cell volume distribution width)” value [1, 5] was 16.24 ± 1.60 and the “MCV (mean cell volume)” value [1, 6] was 43.09 ± 2.97. The “MPV (meanplateletvolume)” value [1, 6] was 6.80 ± 0.51, the RDW-SD [1, 6] was 29.86 ± 4.02 and the “HGB (hemoglobin)” value ([1]; 7 weeks, colchicine group (0.2 mg/kg), in g/L (unit assumed)) was 133.57 ± 9.50. For the same molecule, the “MCH (mean corpuscular hemoglobin)” value ([1]; 7 weeks, colchicine group (0.2 mg/kg), in pg (unit assumed)) was 14.71 ± 0.70, the “WBC (white blood cell)” value ([1]; 7 weeks, in 10^9/L (unit assumed)) was 9.61 ± 4.41 and the “RBC (red blood cell)” value ([1]; 7 weeks, in 10^12/L (unit assumed)) was 9.13 ± 1.01.

In the case of `OC[C@H]1O[C@H](O[C@H]2[C@H](O)[C@@H](O)[C@@H](OC[C@H]3O[C@@H]4O[C@H]5[C@H](O)[C@@H](O)[C@@H](O[C@H]6[C@H](O)[C@@H](O)[C@@H](O[C@H]7[C@H](O)[C@@H](O)C(O[C@H]8[C@H](O)[C@@H](O)[C@@H](O[C@H]9[C@H](O)[C@@H](O)[C@@H](O[C@H]%10[C@H](O)[C@@H](O)[C@@H](O[C@H]3[C@H](O)[C@H]4O)O[C@@H]%10CO)O[C@@H]9CO)O[C@@H]8CO)O[C@@H]7CO)O[C@@H]6CO)O[C@@H]5CO)O[C@@H]2CO)[C@H](O)[C@@H](O)[C@@H]1O` [G2-β-CD, 6-O-α-D-maltosyl-β-cyclodextrin], the “apparent stability constant (Kc) for Frax complexation” value (shortened to “apparent stability constant (Kc)”) [2] is reported as 997.68 M⁻¹, the “cell viability (cells remained viable)” value (Caco-2 cells; Caco-2, 300 μg/mL) is reported as “over 85%” and the “H&E staining of major tissues” value [3] is reported as “no inflammation and no cellular damage”. For the same molecule, the “changes in blood biochemical assay (in words)” value ([1]; oral daily for 7 weeks) was “no obvious changes”.

For `CC(O)COC[C@H]1O[C@@H]2O[C@H]3[C@H](O)[C@@H](O)[C@@H](O[C@H]4[C@H](O)[C@@H](O)[C@@H](O[C@H]5[C@H](O)[C@@H](O)[C@@H](O[C@H]6[C@H](O)[C@@H](O)[C@@H](O[C@H]7[C@H](O)[C@@H](O)[C@@H](O[C@H]8[C@H](O)[C@@H](O)[C@@H](O[C@H]1[C@H](O)[C@H]2O)O[C@@H]8COCC(C)O)O[C@@H]7COCC(C)O)O[C@@H]6COCC(C)O)O[C@@H]5COCC(C)O)O[C@@H]4COCC(C)O)O[C@@H]3COCC(C)O` (stereo partly drawn) [HP-β-CD, 2-hydroxypropyl-β-cyclodextrin], the “apparent stability constant (Kc)” value [2] was 807.32 M⁻¹ and the viability at 4 h, 300 μg/mL [4] was > 85%.

For `OC[C@H]1O[C@@H]2O[C@H]3[C@H](O)[C@@H](O)[C@@H](O[C@H]4[C@H](O)[C@@H](O)[C@@H](O[C@H]5[C@H](O)[C@@H](O)[C@@H](O[C@H]6[C@H](O)[C@@H](O)[C@@H](O[C@H]7[C@H](O)[C@@H](O)[C@@H](O[C@H]8[C@H](O)[C@@H](O)[C@@H](O[C@H]1[C@H](O)[C@H]2O)O[C@@H]8CO)O[C@@H]7CO)O[C@@H]6CO)O[C@@H]5CO)O[C@@H]4CO)O[C@@H]3CO` [β-CD, β-cyclodextrin], the “apparent stability constant (Kc)” value [2] was 109.34 M⁻¹.

For “Sulfobutyl ether-β-cyclodextrin [SBE-β-CD]”, the “apparent stability constant (Kc)” value [2] was 168.20 M⁻¹ and the cell viability (Caco-2 cells; Caco-2, 200 and 300 μg/mL) was “lower than 80%”.
